Assay results as given in patent US20140194506A1, “Use of Potassium Piperonyl Pentadienoate for Lowering Blood Lipid” (INNER MONGOLIA UNIVERSITY, priority 2011, published 2014).
“And” between values parts separate entries of the source, which are not always exact repeats. Equal entries are not always repeated.

How the values were obtained:
[1] = test system: high lipid mode white rats; assay: Therapeutic blood lipid lowering in hyperlipoidemia mode white rats (Example 3); assay type: in vivo, Wistar male white rats
Text: High lipid feed formula: cholesterol 3%, lard 10%, sodium cholate 0.5%, basal feed: 86.5% (formula: flour 17.14%, rice flour 8.57%, maize 17.14%, bran 21%, fish flour 1.71%, dairy salt 0.857%, vitamin 0.085%, bean material 17.14%).
72 Wistar white male rats of 170±10 g of body weight were divided into 6 groups randomly and numbered. Each group included 12 rats. The rats were fed with common standard feed under experimental conditions and observed for 7 days, and its blood was sampled from tail for testing serum total cholesterol (TC). […] From the 8th day, the group I was set as a blank group, and was fed with common standard feed. Other groups were fed with high lipid feed for 8 days in a row, and the blood was sampled from tail on the next day for testing TC. […] The rats then were divided into 5 groups randomly (see table 12) according to TC levels. Each group included 10 rats (10 rats who were unsuccessful blood lipid modes were discarded). The rats were ted with high lipid teed continuously. Group was a high lipid feed mode control group. Group III was a Simvastatin 10 mg/kg group. Group IV was a GB-O group. Group V was a GB-H group. Group VI was a GB-K group. The high lipid feed mode control group was fed with high lipid feed together with distilled water. Groups III, IV, V, and VI were fed with high lipid feed together with required simvastatin, GB-O, GB-H, and GB-K suspensions (formulated by grinding with 0.5% sodium carboxymethycellulose CMC-Na) respectively. The dosing amount was 0.046 mmol/kg, and the amount of high lipid feed was 20 g per day for each rat. The grouping and the dosing amount for each group can be found in table 13.
(§1) The body weights of white rats were determined and recorded every day. The rats for each group were dosed basing, on its body weight by feeding for 14 days at 22° C. of room temperature and 40-50% of relative humidity. On the 14th day, after fasting and freely receiving water for 16 hours, the blood was sampled from aorta, placed for 30 min to blood coagulate, centrifugated for 15 min at 3000 r/min to separate serum. The values of serum total cholesterol (TC), and triglyceride (TG) were determined on an automatic analyzer using enzymatic colorimetry, the value of high density lipoprotein cholesterol (HDL) was determined using a phosphotungstic acid-Mg precipitation method, and the value of low density lipoprotein cholesterol (LDL) was determined using a polyvinyl sulfate precipitation method.
(§2) All data were treated statistically, and are presented as means standard deviations (x±s). The significance of difference was judged by T test. The calculation of p value was obtained by comparing the high lipid mode group with the blank control group, and comparing other test drug groups with the high lipid mode group.
The reaction temperature was 37° C. The cholesterol ester in serum was first hydrolyzed into free cholesterol (FC) and fatty acid with cholesterol ester hydrolase (CEH.) Then, all FC in serum was oxidized into ch-4-en-3-one and H2O2) with cholesterol oxidase (COD). The resulting H2O2, was reacted with 4-aminoantipyrine (4-AAP) and 4-chlorophenol in the presence of peroxidase (POD) (Trinder reaction), to yield red quinine imine, which was colarimetrically tested at 500 nm wavelength.
The reaction temperature was 37° C. The triglyceride in serum was first hydrolyzed into glycerol and fatty acid with lipoprotein lipase (LPL). The resulting glycerol was reacted with ATP in the presence of glycerol kinase (GK), to produce glycerol-3-phosphate and ADP. The resulting glycerol-3-phosphate was oxidized into dihydroxyacetone phosphate and H2O2 with oxygen in the presence of glycerol phosphate oxidase (GPO). […]

[2] = test system: high lipid mode white rats; assay: Prophylactic blood lipid lowering in high lipid feed white rats (Example 2); assay type: in vivo, Wistar male white rats
Text: High lipid feed formula: cholesterol 3%, lard 10%, sodium cholate 0.5%, basal feed: […] (formula: flour 17.14%, rice flour 8.57%, maize […], bran 21%, fish flour 1.71%, dairy salt 0.857%, vitamin 0.085%, bean material 17.14%).
60 Wistar White male rats of 150±10 g of body weight were fed with common standard feed for 5 days, and then divided into 6 groups randomly. Each group included 10 rats. Group I was a blank group, where the rats were fed with common standard feed. Group II was a high lipid feed mode control group. Group III was a Simvastatin 10 mg/kg group. Group IV was a GB-O group. Group V was a GB-H group. Group VI was a GB-K group. High lipid feed mode control group were fed with high lipid feed together with distilled water. Groups III, IV, V, and VI were fed with high lipid feed together with required simvastatin, GB-O, GB-H, and GB-K suspensions (formulated by grinding with 0.5% sodium […] CMC-Na) respectively. The dosing amount was 0.046 mmol/kg, and the amount of high lipid feed was 20 g per day for each rat. The grouping and the dosing amount for each group can be found in table 1.
as §1, with “The rats in each group” for “The rats for each group”, “were dosed basing on its” for “were dosed basing, on its”, “16 hours, its blood was” for “16 hours, the blood was”, “blood coagulate, and centrifugated for” for “blood coagulate, centrifugated for”, “determined using the polyvinyl sulfate” for “determined using a polyvinyl sulfate”
as §2, with “were” for “are”, “means±standard” for “means standard”
The reaction temperature was 37° C. The cholesterol ester in serum was first hydrolyzed into free cholesterol (FC) and fatty acid with cholesterol ester hydrolase (CEH). Then, all FC in serum was oxidized into ch-4-en-3-one and H2O2 with cholesterol oxidase (COD). The resulting H2O2 was reacted with 4-aminoantipyrine (4-AAP) and 4-chlorophenol in the presence of peroxidase (POD) (Trinder reaction), to yield red quinine imine, which was calorimetrically tested at a 500 nm wavelength.
The reaction temperature was 37° C. The triglyceride ire serum was first hydrolyzed into glycerol and fatty acid with lipoprotein lipase (LPL). The resulting glycerol was reacted with ATP in the presence of glycerol kinase (GK), to produce glycerol-3-phosphate and ADP. The resulting glycerol-3-phosphate was oxidized into dihydroxyacetone phosphate and H2O2 with oxygen in the presence of glycerol phosphate oxidase (GPO). The resulting H2O2 was reacted with 4-aminoantipyrine (4-AAP) and 4-chlorophenol in the presence of peroxidase (POD) (Trinder reaction), to yield red quinine imine, which was colorimetrically determined at a 500 nm wavelength.
The LDL in serum was precipitated using PVS. The serum TC and the Ch in the resulting supernatant were determined using the enzymatic methods described hereinabove, and the LDL-C was calculated by subtracting the Ch from the serum TC. The polyethylene glycol monoether (PEGME) was added in a suitable amount in order to facilitate the precipitation of LDL. […]

[3] = group mean n=10, 15th day after administration
[4] = in comparison with group II (high lipid mode control group)
[5] = rats No. 1-10, 0.046 mmol/kg (Simvastatin 10 mg/kg), 15th day after administration

O=C(O)/C=C/C=C/c1ccc2c(c1)OCO2 [GB-H, piperonyl pentadienoic acid]
Total cholesterol value ([1]; Table 18, mean ± standard deviation, n=10): 11.09 ± 1.82
Triglyceride value ([1]; Table 19, mean ± standard deviation, n=10): 2.55 ± 0.42 mmol/L
Low density lipoprotein cholesterol ([1]; Table 20, mean ± standard deviation, n=10): 3.34 ± 1.30 mmol/L
High density lipoprotein cholesterol ([1]; Table 21, mean ± standard deviation, n=10): 0.67 ± 0.21 mmol/L
serum high density lipoprotein cholesterol (HDL) contents, Mean [1, 3]: 0.67 mmol/L
serum low density lipoprotein cholesterol (LDL) contents, Mean [1, 3]: 3.34 mmol/L
serum total cholesterol (TC) contents, Mean [1, 3]: 11.09 mmol/L
serum triglyceride (TG) contents, Mean [1, 3]: 2.55 mmol/L
effect on serum high density lipoprotein cholesterol, in words [1, 4]: show the effect of some extent, of increasing high density lipoprotein cholesterol
effect on serum low density lipoprotein cholesterol, in words [1, 4]: significant differences
effect on serum total cholesterol, in words [1, 4]: extremely significant differences
effect on serum triglyceride, in words [1, 4]: extremely significant differences
serum high density lipoprotein cholesterol (HDL) contents, individual rats [1, 5]: 0.67 mmol/L and 0.85 mmol/L and 0.72 mmol/L and 0.77 mmol/L and 0.37 mmol/L and 0.46 mmol/L and 0.82 mmol/L and 0.73 mmol/L and 1.02 mmol/L and 0.35 mmol/L
serum low density lipoprotein cholesterol (LDL) contents, individual rats [1, 5]: 2.22 mmol/L and 5.37 mmol/L (2×) and 2.03 mmol/L and 3.35 mmol/L and 3.61 mmol/L and 2.68 mmol/L and 2.09 mmol/L and 4.36 mmol/L and 2.34 mmol/L
serum triglyceride (TG) contents, individual rats [1, 5]: 1.97 mmol/L and 2.08 mmol/L and 2.37 mmol/L and 2.61 mmol/L (2×) and 2.82 mmol/L and 2.47 mmol/L and 3.04 mmol/L and 2.23 mmol/L and 3.31 mmol/L
serum total cholesterol (TC) contents, individual rats ([1]; rats No. 1-10, hyperlipoidemia mode, drug 14 days, 0.046 mmol/kg (Simvastatin 10 mg/kg), 15th day after administration): 12.34 mmol/L and 9.37 mmol/L and 12.03 mmol/L and 10.25 mmol/L and 10.37 mmol/L and 9.36 mmol/L (2×) and 11.28 mmol/L (2×) and 15.24 mmol/L
Total cholesterol value ([2]; Table 6, mean ± standard deviation, n=10): 13.23 ± 3.49
Triglyceride value ([2]; Table 7, mean ± standard deviation, n=10): 1.31 ± 0.3219 mmol/L
Low density lipoprotein cholesterol ([2]; Table 8, mean ± standard deviation, n=10): 4.298 ± 1.0578 mmol/L
High density lipoprotein cholesterol ([2]; Table 9, mean ± standard deviation, n=10): 0.325 ± 0.0902 mmol/L
serum total cholesterol (TC) contents, Mean ([2]; group mean n=10, 0.046 mmol/kg (Simvastatin 10 mg/kg), 15th day after administration): 13.23 mmol/L
serum high density lipoprotein cholesterol (HDL) contents, Mean [2, 3]: 0.32 mmol/L
serum low density lipoprotein cholesterol (LDL) contents, Mean [2, 3]: 4.29 mmol/L
serum triglyceride (TG) contents, Mean [2, 3]: 1.31 mmol/L
effect on serum low density lipoprotein cholesterol, in words [2, 4]: show the effect of lowering serum low density lipoprotein cholesterol value
effect on serum total cholesterol, in words [2, 4]: extremely significant differences
effect on serum triglyceride, in words ([2]; in comparison with group II (high lipid mode control group), listed as GB-1-1): extremely significant differences
serum high density lipoprotein cholesterol (HDL) contents, individual rats [2, 5]: 0.26 mmol/L (2×) and 0.48 mmol/L and 0.18 mmol/L and 0.35 mmol/L and 0.28 mmol/L and 0.42 mmol/L and 0.41 mmol/L and 0.30 mmol/L and 0.31 mmol/L
serum low density lipoprotein cholesterol (LDL) contents, individual rats [2, 5]: 4.53 mmol/L and 5.85 mmol/L and 4.24 mmol/L and 2.74 mmol/L and 4.19 mmol/L and 2.68 mmol/L and 5.09 mmol/L and 4.86 mmol/L and 3.51 mmol/L and 5.29 mmol/L
serum triglyceride (TG) contents, individual rats [2, 5]: 1.15 mmol/L and 1.64 mmol/L and 1.71 mmol/L and 0.91 mmol/L and 0.88 mmol/L and 1.06 mmol/L and 1.58 mmol/L and 1.23 mmol/L and 1.70 mmol/L and 1.30 mmol/L
serum total cholesterol (TC) contents, individual rats ([2]; rats No. 1-10, high lipid feed plus drug 14 days, 0.046 mmol/kg (Simvastatin 10 mg/kg), 15th day after administration): 16.64 mmol/L and 14.72 mmol/L and 10.11 mmol/L and 13.12 mmol/L and 9.56 mmol/L and 7.83 mmol/L and 12.22 mmol/L and 14.24 mmol/L and 14.28 mmol/L and 19.58 mmol/L
